Assay results as given in US20100143477A1, “Methods and Compositions for Stimulating the Proliferation or Differentiation of Stem Cells with Substance Por an Analog Thereof” (Immuneregen Biosciences, Inc., priority 2007, published 2010).

Assays:
[1] = tested on: CFU-Mk, platelet precursors (human bone marrow mononuclear cells); assay: Colony forming unit (CFU) assay (Example 6); format: cell-based; conditions: for effect of antagonist on substance P enhanced platelet colony formation: in the presence of substance P
From the text: (§1) As stem cells differentiate in response to growth factors, they form a colony of cells with distinct morphologies that can be visualized using a microscope. This study examined the formation of three different progenitor cell populations, erythrocytes, platelets and granulocytes/macrophages.
(§2) Bone marrow aspirates were obtained from three healthy donors between 18 and 35 years of age following appropriate guidelines and protocols. Bone marrow mononuclear cells were isolated using a Ficoll-Hypaque density gradient, separating red blood cells from the others. Cells from each donor were processed independently and used for setting up individual experiments to assess the effects, if any, of donor variability.
(§3) Cells (1×10^5) were plated in duplicate onto 35 mm tissue culture plates for each condition tested and set up as described in Rameshwar et al. 1993, Blood. 81:2, 391-398. Erythroid and granulocyte/macrophage cultures were plated using methylcellulose and megakaryocyte cultures (platelet precursors) used a collagen-based support (StemCell Technologies, Vancouver, Canada, catalogue #04973). […] CP 99,994 (Pfizer) was used as a neurokinin-1 receptor antagonist and SR 48968 (Sanofi) was used as a neurokinin-2 receptor antagonist.
Cultures were set up with limited cytokines and growth factors which would promote differentiation of one progenitor per plate.
Each compound was dissolved in endotoxin-free water to a final concentration of 0.1 mM. After reconstitution, the solutions were aliquoted into siliconized microcentrifuge tubes and exposed to nitrogen gas, eliminating oxygen in the head space of the enclosure. All aliquots were stored at −20° C. until use and used within one month of reconstitution. See, Rameshwar, et al. 1997, J. Immunol.
Cultures were incubated at 37° C. with 5% CO2 for approximately 14 days, after which colonies were manually enumerated using a microscope. […]

[2] = tested on: neurokinin-1 (NK1) receptor; NK2 and NK3 receptors; conditions: Tousignant et al. 1990; cited from earlier work
[3] = tested on: CFU-E (human bone marrow mononuclear cells); assay: Colony forming unit (CFU) assay (Example 6); format: cell-based; conditions: approximately 14 days; FIG. 2
From the text: as §1, §2
as §3, with “antagonist. […]” for “antagonist.”

[4] = tested on: BFU-E (human bone marrow mononuclear cells); assay: Colony forming unit (CFU) assay (Example 6); format: cell-based; conditions: approximately 14 days; FIG. 1
From the text: as §1, §2
as §3, with “antagonist. […]” for “antagonist.”

[5] = tested on: human bone marrow-derived hematopoietic cell populations; assay: CFC and iATP assays, all 7 cell populations (Example 3); format: cell-based; conditions: most of populations; 14 days; up to 1 nM
Description: The compound was dissolved in 1 ml of Iscove's Modified Dulbecco's Medium (IMDM) and a serial dose response prepared in single log doses so that the final dose in culture ranged from 1 nM to 1×10^−16 M. All working dilutions were performed in IMDM.
Starting with human bone marrow aspirate, the mononuclear cell (MNC) fraction was separated from the whole bone marrow using Ficoll-Paque density gradient centrifugation. […] The cell concentration was adjusted so that the final cell concentration in culture was 10,000 cells/well.
Human bone marrow MNC was dissolved in IMDM and cultured at a concentration of 10,000 cell/well in a CAMEO™-96 Master Mix (HemoGenix, Inc., Colorado Springs, Colo.). […]
Prior to processing all 96-well plates, the total colony counts/well were manually enumerated by microscopy. The mean, standard deviation and percent coefficient of variation was calculated for all groups, transposed and plotted. The intracellular ATP (iATP) concentration was measured after manual enumeration.
The output of the luminometer is non-standardized Relative Luminescence Units (RLU). […] This allowed the RLU values to be automatically calculated into standardized ATP (μM) units. For both the RLU and ATP values derived from each well, the luminometer software calculated the mean, standard deviation and percent coefficient of variation.

[6] = tested on: human-derived hematopoietic cell populations; assay: CFC assay, multi-donor study, all seven cell populations (Example 4); format: cell-based; conditions: highest doses (up to 1 nM); three donors
Description: Compound was dissolved in 1 ml of Iscove's Modified Dulbecco's Medium (IMDM) and a serial dose response was prepared in single log doses so that the final dose in culture ranged from 1 nanoMolar (nM) to 1×10^−16 M. All working dilutions were performed in IMDM. Cell cultures from each donor were started at different times and a fresh solution of Homspera® was prepared for each individual experiment.
Starting with human bone marrow aspirate, the mononuclear cell (MNC) fraction from each aspirate was separated from whole bone marrow using Ficoll-Paque density gradient centrifugation.
The colony-forming cell (CFC) assay was performed using optimal growth factor/cytokine concentrations. The reagents and conditions were similar to those used in Example 3, except that no ATP measurements were performed. The MNC fraction from each bone marrow donor was dissolved in IMDM and cultured at a concentration of 5,000 cells/well in a Culture Master Mix (HemoGenix, Inc., Colorado Springs, Colo.). […]
The mean, standard deviation and percent coefficient of variation was calculated for all groups, transposed and plotted as a function of donor. The percent from control values were calculated and also plotted as a function of donor. […]

CC(=O)NC1(c2ccccc2)CCN(CC[C@H](CN(C)C(=O)c2ccccc2)c2ccc(Cl)c(Cl)c2)CC1 [SR48968]
effect of antagonist on substance P enhanced platelet colony formation [1]: no effect on substance P activity

RPKPQQFFGLM [substance P]
effective concentration, platelet precursors (CFU-Mk) [1]: 10^−8 M
neurokinin receptor specificity [2]: can also activate the neurokinin-2 (NK2) and neurokinin-3 (NK3) receptors
CFU-E colony formation, enhancement from control values [3]: about 70%
BFU-E colony formation, increase from control values [4]: ~60%

CC(C)C[C@H](NC(=O)CN(C)C(=O)[C@H](Cc1ccccc1)NC(=O)[C@H](Cc1ccccc1)NC(=O)[C@H](CCC(N)=O)NC(=O)[C@H](CCC(N)=O)NC(=O)[C@@H]1CCCN1C(=O)[C@H](CCCCN)NC(=O)[C@@H]1CCCN1C(=O)[C@@H](N)CCCNC(=N)N)C(=O)N[C@@H](CCS(C)(=O)=O)C(N)=O [Homspera®]
cytotoxicity [5]: apparent absence of distinct cytotoxicity
toxicity [6]: no apparent toxicity

COc1ccccc1CN[C@H]1CCCN[C@H]1c1ccccc1 [CP-99,994]
effect of antagonist on substance P enhanced platelet colony formation [1]: blocks the stimulatory activity of substance P
